Data published in patent publication US20110166161A1, “HETEROCYCLIC CARBOXAMIDE COMPOUNDS” (Astellas Pharma Inc., priority 2008, published 2011).
Structures can show the parent of a compound that is named as a salt.

Assays:
Male SD rats = test: Changes in hindlimb weight distribution after intra-articular monosodium iodoacetate (MIA) injection; format: in vivo; conditions: Rattus norvegicus, 504 h; oral administration; MIA-injected rats, three weeks after injection
Text: As intra-articular injection of monosodium iodoacetate (MIA) induced human osteoarthritis-like histopathological changes in knee joint, this model would be very useful for the study of human osteoarthritis. Recently, it is reported the clinical scores of the joint pain were closely correlated to the grade of histological findings (J Vet Med Sci 65, 1195, 2003) and this model may be useful for estimation of therapeutic effects of pain with osteoarthritis.
Male SD rats were anesthetized with halothane (Takeda, Japan) and given single intra-articular injection of 1 mg of monosodium iodoacetate (MIA; Sigma, St. Louis, USA) through the infrapatellar ligament of the right knee. MIA was dissolved with physiologic saline and administered in a volume of 50 μl using a 27-gauge, 0.5-inch needle. Three weeks after the injection, hindlimb weight distribution was determined using an incapacitance tester (Linton Instrumentation, Norfork, UK). Rats were allowed to acclimate to the testing apparatus and when stationary, readings were taken over a 5 s period. […] Each group in each experiment was performed in about 8 animals.

Male Wistar rats [1] = test: Inhibitory effects on phenylephrine-induced elevation of urethral pressure; format: in vivo; conditions: Rattus norvegicus, iv; phenylephrine 30 μg/kg i.v.; anesthetized rats; read-out: Inhibition of elevation in urethral pressure ED30
Text: To evaluate the usefulness of the compounds of the present invention for urinary dysfunction associated with benign prostatic hyperplasia, we investigated the inhibitory effects of the intravenous administration of the compounds on phenylephrine-induced elevation of the urethral pressure in rats.
Male Wistar rats were anesthetized with urethane (SIGMA, USA). After midline abdominal incision, catheter to measure the urethral pressure (3.5 Fr, Millar, USA) was inserted into the urethra from top of the bladder. After confirming the Phenylephrine (30 μg/kg i.v.)-induced elevation of the urethral pressure, compounds were administered intravenously in increasing doses. Every 5 min after administration of compounds, Phenylephrine (30 μg/kg i.v.) was injected, and the inhibitory effects of compounds on phenylephrine-induced elevation of urethral pressure were evaluated. Each experiment was performed in about 4 animals.

human ROCK I = human ROCK I (Homo sapiens, UniProt Q13464); test: ROCK enzyme inhibition assay; format: biochemical
Description: ROCK enzyme inhibitory activity of the compounds of the present invention has been assayed as follow. An aqueous solution of Rho kinase substrate MYTP was added to 96-well plate. Following incubation for overnight at 4° C., the plate was blocked by using blocking buffer containing BSA. To the plate was added reaction buffer containing each concentration of compound, suitable concentration of human ROCK I (Caruna Biosciences), ATP, β-glycerol phosphate, EGTA, sodium orthovanadate and DTT, and then the plate was incubated for 1 hour. After washing the plate by washing buffer, anti-phosphothreonin antibody was added to the plate, and then the plate was incubated for 1 hour. After washing the plate by washing buffer again, HRP-conjugated anti-phosphorylated protein antibody was added to the plate, and then the plate was incubated for 1 hour. After washing the plate by washing buffer again, colorimetric substrate TMB microwell peroxidase substrate was added to the plate, and then the plate was incubated for appropriate time. After incubation, sulfuric acid was added to the plate to stop the reaction, and then absorbance (450 nm) was measured by using spectromether. Based, on the absorbance for each compound, the data is fit using Prism software to obtain a IC50 value.

Male Wistar rats [2] = test: Effects on hindlimb blood flow (laser Doppler); format: in vivo; conditions: po; 10 mg/kg p.o.; rat hindlimb; read-out: % of increase of blood flow
Text: As one of the study to clarify the usefulness of the compounds of the present invention for peripheral arterial disease, we conducted a study to evaluate the effects of the compounds on hindlimb blood flow in rats.
Male Wistar rats were anesthetized by intraperitoneal pentobarbital injection (Kanto chemical, Japan) after oral administration of compounds. Rats were placed on a heating plate for subsequent hindlimb blood flow analysis. We measured hindlimb blood flow using a laser Doppler blood flow meter (PeriScan System, Stockholm, Sweden). After the laser Doppler images were recorded, the average perfusion values of both limbs were calculated, and evaluated the effects of compounds on hindlimb blood flow. Each experiment was performed in about 4 animals.

beagle dogs = test: In vivo eye pressure lowering effect (IOP), beagle dogs; conditions: beagle dog, 10 mM applied topically
Description: (§1) The intraocular pressure (IOP) was determined in beagle dogs and rats with tonometer (TONO-PEN™, MENTOR and TonoLab™, M. E. Technica), specially calibrated for the eye of the particular species. In beagle dogs, the cornea was anesthetized with oxibuprocain before each IOP measurement.

female C57Bl/6 mice = test: Bleomycin-induced lung fibrosis model, hydroxyproline content of the lung; format: in vivo, mouse; conditions: 1 mg/kg orally once a day from day 1 to day 35; lung removed day 36
Description: To induce pulmonary fibrosis, ten mg/kg bleomycin (Nipponkayaku Industries Ltd, Tokyo, Japan) was intraperitoneally injected into female C57Bl/6 mice (9 weeks old, Charles River Laboratories Japan, Inc.) once a day from day 1 to day 10. Bleomycin was dissolved in saline and control mice were intraperitoneally injected with saline. The compound or vehicle was orally administered to the mice once a day from day 1 to day 35. On day 36, mice were sacrificed under anesthesia of pentobarbital and the lung was surgically removed. Hydroxyproline content of the lung was assayed according to the method of Woessner JF (1).

rats = test: In vivo eye pressure lowering effect (IOP), rats; conditions: rat, 10 mM applied topically
Description: as §1

human ROCK I, sequence (Q13464 whole entry): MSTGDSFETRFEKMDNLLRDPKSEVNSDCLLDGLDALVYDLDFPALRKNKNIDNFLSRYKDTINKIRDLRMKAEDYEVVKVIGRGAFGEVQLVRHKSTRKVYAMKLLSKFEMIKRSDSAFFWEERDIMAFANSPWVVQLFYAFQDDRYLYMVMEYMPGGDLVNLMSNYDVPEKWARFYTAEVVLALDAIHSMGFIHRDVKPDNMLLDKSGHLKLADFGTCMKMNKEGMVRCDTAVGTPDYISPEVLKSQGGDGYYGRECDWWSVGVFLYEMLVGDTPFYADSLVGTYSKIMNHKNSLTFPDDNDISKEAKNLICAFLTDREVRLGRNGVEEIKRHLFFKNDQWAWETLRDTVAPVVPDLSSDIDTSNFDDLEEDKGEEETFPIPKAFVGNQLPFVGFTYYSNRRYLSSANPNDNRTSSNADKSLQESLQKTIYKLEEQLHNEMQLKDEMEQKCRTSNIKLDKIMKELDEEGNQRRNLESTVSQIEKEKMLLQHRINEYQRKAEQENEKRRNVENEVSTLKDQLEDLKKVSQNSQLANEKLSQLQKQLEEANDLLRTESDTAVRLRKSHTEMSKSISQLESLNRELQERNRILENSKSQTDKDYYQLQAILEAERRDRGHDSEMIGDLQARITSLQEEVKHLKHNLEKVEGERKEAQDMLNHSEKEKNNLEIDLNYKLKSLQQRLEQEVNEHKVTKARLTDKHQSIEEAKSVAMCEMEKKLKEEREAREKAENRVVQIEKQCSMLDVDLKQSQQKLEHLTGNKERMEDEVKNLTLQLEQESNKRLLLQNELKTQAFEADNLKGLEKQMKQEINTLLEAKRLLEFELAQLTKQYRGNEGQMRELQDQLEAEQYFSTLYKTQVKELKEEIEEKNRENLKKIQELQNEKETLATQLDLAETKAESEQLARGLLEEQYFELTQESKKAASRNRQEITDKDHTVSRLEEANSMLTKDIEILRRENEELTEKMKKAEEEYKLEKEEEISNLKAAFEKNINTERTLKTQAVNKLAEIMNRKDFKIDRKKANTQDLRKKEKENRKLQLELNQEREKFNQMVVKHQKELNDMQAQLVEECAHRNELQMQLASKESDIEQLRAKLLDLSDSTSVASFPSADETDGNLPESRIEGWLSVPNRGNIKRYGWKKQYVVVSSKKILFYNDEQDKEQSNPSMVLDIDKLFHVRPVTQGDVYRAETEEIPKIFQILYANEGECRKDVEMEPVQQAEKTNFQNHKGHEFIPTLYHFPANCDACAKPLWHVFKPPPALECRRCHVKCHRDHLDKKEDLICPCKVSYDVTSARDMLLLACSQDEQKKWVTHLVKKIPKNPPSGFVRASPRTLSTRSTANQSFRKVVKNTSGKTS

| SMILES | ED50 (Male SD rats) [mg/kg] | ED30 (Male Wistar rats [1]) [mg/kg] | IC50 (human ROCK I) [nM] | change in vivo at 10 mg/kg (Male Wistar rats [2]) [%] | IOP change in animals after 4 hours (beagle dogs) [% reduced in beagle dog] | reduction of hydroxyproline content of the lung (female C57Bl/6 mice) [%] | IOP change in animals after 4 hours (rats) [% reduced in rat] |
| --- | --- | --- | --- | --- | --- | --- | --- |
| COc1nc(N[C@H]2CC[C@H](N)CC2)ccc1C(N)=O [Example 1, 6-[(trans-4-aminocyclohexyl)amino]-2-methoxynicotinamide dihydrochloride] | < 1 | < 0.5 | 2 | > 130 |  |  |  |
| COc1nc(N[C@H]2CC[C@H](N)CC2)c(F)cc1C(N)=O [Example 2, 6-[(trans-4-aminocyclohexyl)amino]-5-fluoro-2-methoxynicotinamide dihydrochloride] | < 1 | < 0.5 | 2 | > 130 |  |  |  |
| COc1nc(N[C@H]2CC[C@H](N)CC2)c(F)cc1C(N)=O [Example 3, 6-[(trans-4-aminocyclohexyl)amino]-5-fluoro-2-methoxynicotinamide] |  |  |  |  | −16 | 66 |  |
| COc1nc(N[C@H]2CC[C@H](N)CC2)c(Cl)cc1C(N)=O [Example 4, 6-[(trans-4-aminocyclohexyl)amino]-5-chloro-2-methoxynicotinamide] | < 1 | < 0.5 | 5 | > 130 |  |  |  |
| COc1nc(N[C@H]2CC[C@H](N)CC2)c(Br)cc1C(N)=O [Example 5, 6-[(trans-4-aminocyclohexyl)amino]-5-bromo-2-methoxynicotinamide] | < 3 | < 0.5 | 39 | > 130 |  |  |  |
| CCOc1nc(N[C@H]2CC[C@H](N)CC2)ccc1C(N)=O [Example 6, 6-[(trans-4-aminocyclohexyl)amino]-2-ethoxynicotinamide dihydrochloride] |  | < 0.5 | 10 | > 130 |  |  |  |
| CCOc1nc(N[C@H]2CC[C@H](N)CC2)c(F)cc1C(N)=O [Example 7, 6-[(trans-4-aminocyclohexyl)amino]-2-ethoxy-5-fluoronicotinamide dihydrochloride] |  | < 0.5 | 9 | > 130 |  |  |  |
| CCOc1nc(N[C@H]2CC[C@H](N)CC2)c(Br)cc1C(N)=O [Example 9, 6-[(trans-4-aminocyclohexyl)amino]-5-bromo-2-ethoxynicotinamide] |  |  |  |  |  |  | −30 |
| CCOc1nc(N[C@H]2CC[C@H](N)CC2)c(I)cc1C(N)=O [Example 10, 6-[(trans-4-aminocyclohexyl)amino]-5-iodo-2-ethoxynicotinamide] |  |  |  |  |  |  | −26 |
| COc1nc(N[C@H]2CC[C@H](NS(C)(=O)=O)CC2)c(F)cc1C(N)=O [Example 28, 6-[(trans-4-methanesulfonylaminocyclohexyl)amino]-5-fluoro-2-methoxynicotinamide] |  | < 0.5 | 58 | > 130 |  |  |  |
| COc1nc(N[C@H]2CC[C@H](NC3CCS(=O)(=O)CC3)CC2)c(F)cc1C(N)=O [Example 30, 6-({trans-4-[(1,1-dioxidotetrahydro-2H-thiopyran-4-yl)amino]cyclohexyl}amino)-5-fluoro-2-methoxynicotinamide] |  | < 0.5 | 7 | > 130 |  |  |  |
